According to patent US20240391959A1, “BICYCLIC PEPTIDE LIGANDS […] FOR TRANSFERRIN RECEPTOR 1 (TfR1)” (BicycleTx Limited, priority 2020, published 2024):

Biological target: cynomolgus TfR1
Type: binding

CC[C@H](C)[C@@H]1NC(=O)[C@@H]2CSCC(=O)N3CN(CN(C3)C(=O)CSC[C@H](NC(C)=O)C(=O)N[C@@H](C)C(=O)N3CCC[C@H]3C(=O)N[C@@H](CC(=O)O)C(=O)N[C@@H](C)C(=O)N[C@@H](Cc3c[nH]cn3)C(=O)N[C@@H](CC(C)C)C(=O)NCC(=O)N2)C(=O)CSC[C@@H](C(N)=O)NC(=O)[C@H](Cc2ccc(O)cc2)NC(=O)[C@H](CO)NC1=O [BCY17986, Ac-(SEQ ID NO: 24)]
Kd: 4660 nM

CC[C@H](C)[C@@H]1NC(=O)[C@@H]2CSCC(=O)N3CN(CN(C3)C(=O)CSC[C@@H](C(=O)N[C@@H](C)C(N)=O)NC(=O)[C@H](Cc3cccc4ccccc34)NC(=O)[C@H](CO)NC1=O)C(=O)CSC[C@H](NC(=O)[C@H](C)N)C(=O)N[C@@H](CO)C(=O)N1CCC[C@H]1C(=O)N[C@@H](CC(=O)O)C(=O)N[C@@H](C)C(=O)N[C@@H](Cc1c[nH]cn1)C(=O)N[C@@H](CC(C)C)C(=O)NCC(=O)N2 [BCY16029, A-(SEQ ID NO: 39)-A]
Kd: 5480 nM

CC[C@H](C)[C@@H]1NC(=O)[C@@H]2CSCC(=O)N3CN(CN(C3)C(=O)CSC[C@H](NC(=O)[C@H](CC(N)=O)NC(=O)[C@H](Cc3c[nH]c4ccccc34)NC(=O)[C@H](CC(N)=O)NC(C)=O)C(=O)N[C@@H](CO)C(=O)N3CCC[C@H]3C(=O)N[C@@H](CC(=O)O)C(=O)N[C@@H](C)C(=O)N[C@@H](Cc3c[nH]cn3)C(=O)N[C@@H](CC(C)C)C(=O)NCC(=O)N2)C(=O)CSC[C@@H](C(N)=O)NC(=O)[C@H](Cc2ccc(O)cc2)NC(=O)[C@H](CO)NC1=O [BCY17992, Ac-NWN-(SEQ ID NO: 9)]
Kd: 535 nM

CC[C@H](C)[C@@H]1NC(=O)[C@@H]2CSCC(=O)N3CN(CN(C3)C(=O)CSC[C@H](NC(=O)[C@@H](NC(=O)[C@H](CCC(=O)O)NC(=O)[C@@H](N)CC(N)=O)C(C)C)C(=O)N[C@@H](CO)C(=O)N3CCC[C@H]3C(=O)N[C@@H](CC(=O)O)C(=O)N[C@@H](C)C(=O)N[C@@H](Cc3c[nH]cn3)C(=O)N[C@@H](CC(C)C)C(=O)NCC(=O)N2)C(=O)CSC[C@@H](C(=O)N[C@@H](C)C(N)=O)NC(=O)[C@H](Cc2ccc(O)cc2)NC(=O)[C@H](CO)NC1=O [BCY17112, NEV-(SEQ ID NO: 9)-A]
Kd: 2600 nM

CC(C)C[C@@H]1NC(=O)[C@H](Cc2ccc(O)cc2)NC(=O)[C@H](C)NC(=O)[C@H](CC(=O)O)NC(=O)[C@@H]2CCCN2C(=O)[C@@H]2CCCN2C(=O)[C@@H](NC(=O)[C@H](C)N)CSCC(=O)N2CN3CN(C2)C(=O)CSC[C@@H](C(=O)N[C@@H](C)C(N)=O)NC(=O)[C@H](Cc2ccc(O)cc2)NC(=O)[C@H](CO)NC(=O)[C@H](C(C)(C)C)NC(=O)[C@H](CSCC3=O)NC(=O)CNC1=O [BCY16964, A-(SEQ ID NO: 22)-A]
Kd: 514 nM

CC[C@H](C)[C@@H]1NC(=O)[C@@H]2CSCC(=O)N3CN(CN(C3)C(=O)CSC[C@@H](C(=O)N3CCC[C@H]3C(=O)N[C@H](C(=O)N[C@H](C(=O)N[C@@H](Cc3c[nH]cn3)C(N)=O)C(C)C)[C@@H](C)CC)NC(=O)[C@H](Cc3ccc(O)cc3)NC(=O)[C@H](CO)NC1=O)C(=O)CSC[C@H](NC(=O)[C@H](C)N)C(=O)N[C@@H](CO)C(=O)N1CCC[C@H]1C(=O)N[C@@H](CC(=O)O)C(=O)N[C@@H](C)C(=O)N[C@@H](Cc1c[nH]cn1)C(=O)N[C@@H](CC(C)C)C(=O)NCC(=O)N2 [BCY17120, A-(SEQ ID NO: 9)-PIVH]
Kd: 1260 nM

CC[C@H](C)[C@@H]1NC(=O)[C@@H]2CSCC(=O)N3CN(CN(C3)C(=O)CSC[C@@H](C(=O)N[C@@H](CCC(=O)O)C(=O)N3CCC[C@@H]3C(=O)N[C@@H](Cc3c[nH]c4ccccc34)C(N)=O)NC(=O)[C@H](Cc3ccc(O)cc3)NC(=O)[C@H](CO)NC1=O)C(=O)CSC[C@H](NC(C)=O)C(=O)N[C@@H](CO)C(=O)N1CCC[C@H]1C(=O)N[C@@H](CC(=O)O)C(=O)N[C@@H](C)C(=O)N[C@@H](Cc1c[nH]cn1)C(=O)N[C@@H](CC(C)C)C(=O)NCC(=O)N2 [BCY18038, Ac-(SEQ ID NO: 9)-E[dP]W]
Kd: 1650 nM
